The text below walks through data of patent US20190224222A1, “METHOD OF INHIBITING QUORUM SENSING USING D-GALACTOSE” (Seoul National University R&DB Foundation, priority 2014, published 2019).

SMILES strings stand for the structures.

In assay [1] the test system is F. nucleatum (Fn) biofilm. The assay is described as follows: Fn biofilm formation induced by Fn AI-2, crystal violet staining. The class given is cell-based, F. nucleatum (ATCC 25586). The note with it: Fn + Fn AI-2 10% (v/v), 48-72 h, Fn/AI-2 control 1.5, Fn 0.46. As to the method:
To test biofilm formation by Fn, a Fn culture broth (2 ml; a negative control group, the number of bacteria: 2×10^7/ml), a mixture of Fn culture broth (2 ml) and F. nucleatum AI-2 (purified from F. nucleatum secretary material of F. nucleatum culture broth using a C18 Sep-Pak reverse-phase column (Waters Co., Milford, Mass.); hereinafter, referred to as ‘Fn AI-2’; 10% (v/v) with respect to the total volume of the mixture with Fn culture broth), or a mixture of Fn culture broth (2 ml) and Fn AI-2 (10% (v/v) with respect to the total volume of the mixture with Fn culture broth) and each of QSI candidates was added to a 24-well plate with a glass slip (round, 12 mm radius), and cultured under anaerobic conditions for 48-72 hours. As the QSI candidates, sugars (D-rib, D-gal, D-Glu, D-Man, or D-ara) were used in an amount of 2 mM, and the furanone compound [(5Z)-4-bromo-5-(bromomethylene)-2(5H)-furanone] was used in an amount of 2 μM.
(§1) Biofilms formed on the cover slips were stained with 10% crystal violet [Tris(4-(dimethylamino)phenyl)methylium chloride] for 10 minutes, washed three times with PBS, and destained with 1 ml of acetone-alcohol (20:80, vol/vol). The optical density at 590 nm of the destaining solution containing crystal violet was measured using a microplate reader (a Wallac Victor3 microtiter, PerkinElmer Life Sciences, Waltham, Mass.). The smaller optical density (OD590) measured at 590 nm represents more inhibition of biofilm formation, that is, higher quorum sensing inhibitory effect of the used QSI candidate.

The subject of assay [2] is P. gingivalis (Pg) biofilm. The assay is described as follows: Pg biofilm formation induced by Fn AI-2, crystal violet staining. Type of assay: cell-based, P. gingivalis (ATCC 33277). The note with it: Pg + Fn AI-2 10% (v/v), Fur 2 μM, 48-72 h; Pg/AI-2 control 2.00, Pg 0.66. As to the method:
To test biofilm formation by Pg, a test was performed in the same manner as in Example 3. That is, a Pg culture broth (2 ml; negative control group, the number of bacteria: 4×10^8/ml), a mixture of Pg culture broth (2 ml) and Fn AI-2 (10% (v/v) with respect to the total volume of the mixture with Pg culture broth), or a mixture of Pg culture broth (2 ml) and Fn AI-2 (10% (v/v) with respect to the total volume of the mixture with Fn culture broth) and D-gal (2 mM) was added to a 24-well plate with a glass slip (round, 12 mm radius), and cultured under anaerobic conditions for 48˜72 hours. For comparison, 2 μM of the furanone compound [(5Z)-4-bromo-5-(bromomethylene)-2(5H)-furanone] was used instead of D-gal (2 mM) to perform the same test.
as §1

Assay [3] has as its system T. forsythia (Tf) biofilm. The assay is described as follows: Tf biofilm formation induced by Fn AI-2, crystal violet staining. The class given is cell-based, T. forsythia (ATCC 43037). The following applies: Tf + Fn AI-2 10% (v/v), Fur 2 μM, 48-72 h; Tf/AI-2 control 0.48, Tf 0.32. The method, then: To test biofilm formation by Tf, a test was performed in the same manner as in Example 3. That is, a Tf culture broth (2 ml; a negative control group, the number of bacteria: 2×10^8/ml), a mixture of Tf culture broth (2 ml) and Fn AI-2 (10% (v/v) with respect to the total volume of the mixture with Tf culture broth), or a mixture of Tf culture broth (2 ml) and Fn AI-2 (10% (v/v) with respect to the total volume of the mixture with Tf culture broth) and D-gal (2 mM) was added to a 24-well plate with a glass slip (round, 12 mm radius), and cultured under anaerobic conditions for 48-72 hours. For comparison, 2 mM of D-rib or 2 μM of the furanone compound [(5Z)-4-bromo-5-(bromomethylene)-2(5H)-furanone] was used instead of D-gal to perform the same test.
as §1

Assay [4] relates to P. gingivalis (Pg) biofilm. The assay is described as follows: Pg biofilm formation induced by Fn secretory material, transwell, crystal violet. The following applies: Fn upper / Pg lower chamber, Fur 2 μM, 48-72 h, Fn/Pg control 0.57, Pg alone 0.30. The class given is cell-based. As to the method: (§2) In order to examine efficacies of quorum sensing inhibitor (QSI) candidates on biofilm formation of periodontopathogenic bacteria which is induced by a secretory material of F. nucleatum (Fn), a test was performed using a transwell system. AI-2 naturally secreted by Fn is contained in the secretory material of Fn. Therefore, in the test using the transwell system, Fn AI-2 was not directly added to bacteria, but Fn was put in an upper chamber and Pg or Tf was put in a lower chamber. Biofilms cultured and formed in the presence or absence of QSI candidates were stained with crystal violet, followed by analysis. These conditions are to evaluate whether Pg or Tf biofilm formation is influenced by not a purified AI-2 but an AI-2-containing secretory material naturally secreted by Fn, and whether QSI candidates such as D-gal is able to inhibit the biofilm formation if the biofilm is then formed.
(§3) More specifically, the transwell system (24-well) has an upper chamber and a lower chamber which are separated from each other by a membrane of 0.4 μm. 500 μl of F. nucelatum (Fn) culture broth (the number of bacteria: 2×10^7 CFU/ml) was cultured in the upper chamber. A glass slip was placed in the lower chamber, and then the same number of P. gingivalis(Pg) or T. forsythia(Tf) was inoculated in 1 ml of medium and cultured for 48-72 hours. The same QSI candidates were added to the upper and lower chambers. As the QSI candidates, 2 mM of sugar (D-rib or D-gal) was used and 2 μM of the furanone compound [(5Z)-4-bromo-5-(bromomethylene)-2(5H)-furanone] was used. In order to examine whether biofilm formation of the bacteria in the lower chamber is influenced by Fn secretory material and QSI candidates, the biofilms formed on the glass slip were stained with crystal violet, and then quantified (see Examples 3 to 5).

Assay [5] relates to T. forsythia (Tf) biofilm. The assay is described as follows: Tf biofilm formation induced by Fn secretory material, transwell, crystal violet. The class given is cell-based. The following applies: Fn upper / Tf lower chamber, Fur 2 μM, 48-72 h, Fn/Tf control 0.55, Tf alone 0.17. As to the method: as §2, §3
Assay [6] relates to S. mutans (Sm) biofilm. The assay is described as follows: S. mutans biofilm formation, crystal violet staining. The class given is cell-based, Streptococcus mutans (ATCC 25175). As to the method:
2 mL (2×10^7/ml) of the culture broth of a representative cariogenic bacterium S. mutans (Sm) and 2 mL (2×10^7/ml) of the culture broth of one of normal oral flora, S. oxalis (SO) were added to a saliva-coated glass slip (round, 12 mm radius), respectively and cultured with 0 mM or 2 mM of D-galactose to form biofilms. The formed biofilms were stained with crystal violet in the same manner as in Examples 3-6 to test biofilm formation according to the presence of D-galactose. Further, the biofilms were stained with fluorescent materials using the live/dead-BacLight viability kit (Invitrogen, Grand Island, N.Y., USA), followed by analysis. For comparison, 2 μM of the furanone compound was used instead of D-galactose to perform the same test.

In assay [7] the test system is S. oxalis (So) biofilm. The assay is described as follows: S. oxalis biofilm formation, crystal violet staining. Type of assay: cell-based, Streptococcus oxalis (ATCC 9811). The following applies: So on saliva-coated glass slip, Fur 2 uM; So control 0.59. As to the method:
2 mL (2×10^7/ml) of the culture broth of a representative cariogenic bacterium S. mutans (Sm) and 2 mL (2×10^7/ml) of the culture broth of one of normal oral flora, S. oxalis (SO) were added to a saliva-coated glass slip (round, 12 mm radius), respectively and cultured with 0 mM or 2 mM of D-galactose to form biofilms. […] Further, the biofilms were stained with fluorescent materials using the live/dead-BacLight viability kit (Invitrogen, Grand Island, N.Y., USA), followed by analysis. For comparison, 2 μM of the furanone compound was used instead of D-galactose to perform the same test.

Where [8] appears, read: sugar 2 mM, smaller OD = more inhibition of biofilm.

Turning to `O=C[C@@H](O)[C@H](O)[C@H](O)CO` [D-ara, D-arabinose], the OD590 nm in assay [1] (setting [8]) turned out to be 1.37.

Consider `O=C[C@H](O)[C@@H](O)[C@H](O)[C@H](O)CO` [D-glu, D-glucose], for which the OD590 nm in assay [1] (setting [8]) is 1.15.

In the case of `O=C[C@@H](O)[C@@H](O)[C@H](O)[C@H](O)CO` [D-man, D-mannose], in assay [1] (setting [8]), the OD590 nm is recorded as 1.16.

On to `O=C1C=C(Br)/C(=C/Br)O1` [Fur, (5Z)-4-bromo-5-(bromomethylene)-2(5H)-furanone, reference compound], for which the OD590 nm is on record as 0.49 in assay [1] (Fur 2 μM); 0.98 in assay [2]; 0.35 in assay [3]; 0.30 in assay [4]; 0.51 in assay [6] (Sm on saliva-coated glass slip, Fur 2 μM, Sm control 0.48). Also, the OD590 was determined as 0.39 in assay [5] and 0.64 in assay [7]. The “inhibitory effect on Sm biofilm formation, in words” value in assay [6] (crystal violet, D-gal 2 mM, furanone compound 2 μM) is listed as “hardly exhibited the inhibitory effect”.
